From US6620796B1, “Combinatorial library synthesis and pharmaceutically active compounds produced thereby” (Micrologix Biotech Inc., priority 1999, dated 2003)
Where two headings read alike, the source gives them in different places.

Assays:
Type in all cases: cell-based
[1] = Toxicity analysis by neutral red dye uptake in 2.2.15 cells; conditions: human, neutral red dye uptake
Protocol: (§1) Cells for toxicity analyses were cultured and treated with four concentrations of the test compound. Uptake of neutral red dye was used to determine the relative level of toxicity 24 hours following the last treatment. The absorbance of internalized dye at 510 nm (A510 ) was used for the quantitative analysis. The percentage of dye uptake in the control (untreated) cell cultures was 100±3.

[2] = test system: 2.2.15 cells; assay: as above
Protocol: as §1

[3] = test system: hepatits B virus (HBV); assay: Inhibition of HBV: extracellular virion HBV DNA in 2.2.15 cell cultures; conditions: for HBV Virion DNA Levels at indicated Drug Concentration: untreated control 114±16 pg/ml
Protocol: Briefly, confluent 2.2.15 cell cultures infected with an HBV strain were treated with 9 consecutive daily doses of four concentrations of test compound. Extracellular virion HBV DNA levels were followed 24 hours after the last treatment. The level of HBV virion DNA in the 24 control (untreated) cultures in these experiments was 114±16 pg/ml culture medium.

[4] = HBV replication, 2.2.15 cells, 9 consecutive daily doses, virion DNA 24 hours after last treatment, read-out: EC50
[5] = HBV replication, 2.2.15 cells, 9 consecutive daily doses, virion DNA 24 hours after last treatment, read-out: EC90

Row | SMILES | CC50 [1] [µM] | Neutral Red Dye Uptake at Indicated Drug Concentration ([2]; 10 μM) | Neutral Red Dye Uptake at Indicated Drug Concentration ([2]; 30 μM) | Neutral Red Dye Uptake at Indicated Drug Concentration ([2]; 100 μM) | Neutral Red Dye Uptake at Indicated Drug Concentration ([2]; 300 μM) | HBV Virion DNA Levels at indicated Drug Concentration ([3]; 0.01 μM, 2.2.15 cells) [pg/ml culture] | HBV Virion DNA Levels at indicated Drug Concentration ([3]; 0.1 μM, 2.2.15 cells) [pg/ml culture] | HBV Virion DNA Levels at indicated Drug Concentration ([3]; 1.0 μM, 2.2.15 cells) [pg/ml culture] | HBV Virion DNA Levels at indicated Drug Concentration ([3]; 10 μM, 2.2.15 cells) [pg/ml culture] | Selectivity Index (CC50/EC90) ([3]; HBV replication, 2.2.15 cells) | EC50 [3, 4] [µM] | EC90 [3, 5] [µM] | EC50 ([3]; 24 h) [µM] | EC90 ([3]; 24 h) [µM]
1 | C/C=C(/COP(=O)(S)OC[C@H]1O[C@@H](n2cnc3c(N)ncnc32)C[C@@H]1O)c1ccccc1 (stereo partly drawn) [Nucleoside W198-21] | > 300 | 99 ± 3 % of control | 99 ± 1 % of control | 100 ± 1 % of control | 100 ± 2 % of control | 137 ± 14 | 121 ± 13 | 117 ± 12 | 35 ± 4 | >16 | 5.3 ± 0.6 | 19 ± 2.1 | – | –
2 | Nc1ncnc2c1ncn2[C@H]1C[C@H](O)[C@@H](COP(=O)(S)OCc2ccc3ccccc3c2)O1 (stereo partly drawn) [Nucleoside W198-22] | > 300 | 99 ± 2 % of control | 101 ± 3 % of control | 102 ± 2 % of control | 103 ± 2 % of control | 129 ± 13 | 122 ± 13 | 152 ± 11 | 59 ± 2 | >9.4 | 10 ± 1.1 | 32 ± 3.2 | – | –
3 | C=C(C)[C@@H]1CC=C(COP(=O)(S)OC[C@H]2O[C@@H](n3cnc4c(N)ncnc43)C[C@@H]2O)CC1 (stereo partly drawn) [Nucleoside W198-24] | > 300 | 100 ± 1 % of control | 102 ± 2 % of control | 103 ± 1 % of control | 102 ± 1 % of control | 140 ± 15 | 133 ± 12 | 149 ± 25 | 62 ± 3 | >7.7 | 12 ± 1.2 | 39 ± 4.1 | – | –
4 | C=C(C)CC/C=C/COP(=O)(S)OC[C@H]1O[C@@H](n2cnc3c(N)ncnc32)C[C@@H]1O (stereo partly drawn) [Nucleoside W198-10] | > 300 | 100 ± 1 % of control | 102 ± 2 % of control | 99 ± 1 % of control | 98 ± 1 % of control | 127 ± 10 | 121 ± 10 | 139 ± 10 | 46 ± 2 | >13 | – | – | 7.7 ± 0.9 | 24 ± 0.8
